Values quoted from earlier work as cited in patent US9968649B2, “Vasopressin formulations for use in treatment of hypotension” (Par Pharmaceutical, Inc., priority 2015, dated 2018).

Tested on: healthy subjects
Settings: cited from earlier work

NS(=O)(=O)c1cc(C(=O)O)c(NCc2ccco2)cc1Cl [Furosemide]
increase of urine flow (co-administered with exogenous vasopressin, healthy subjects): 9 fold

FC(F)(F)C(Cl)Br (stereo not shown) [Halothane]
impact on exposure to endogenous vasopressin (in vivo): do not impact exposure

COc1ccc2c(c1)c(CC(=O)O)c(C)n2C(=O)c1ccc(Cl)cc1 [Indomethacin]
time to offset for vasopressin's effect on peripheral vascular resistance and cardiac output (co-administered with vasopressin, healthy subjects): more than doubles

CC[N+](CC)(CC)CC [tetra-ethylammonium]
increase of the pressor effect of vasopressin (healthy subjects): 20%
